Experiment: xn = mol fraction of the nth substance listed
Conditions: Fluid (supercritical or subcritical phases), isochoric method

FC(C(F)(F)F)C(F)(F)F [1,1,1,2,3,3,3-heptafluoropropane] + CCF
Conditions	mass density [kg/m3]
318.18 K, 961.3 kPa, x2 = 0.8032	441.9
323.18 K, 987.1 kPa, x2 = 0.8032	441.8
323.19 K, 1112.7 kPa, x2 = 0.739	520.8
328.18 K, 1011.6 kPa, x2 = 0.8032	441.8
328.19 K, 1144.3 kPa, x2 = 0.739	520.7
333.18 K, 1034.4 kPa, x2 = 0.8032	441.7
333.18 K, 1439.9 kPa, x2 = 0.8036	671.6
333.19 K, 1173.6 kPa, x2 = 0.739	520.7
333.19 K, 1516.7 kPa, x2 = 0.811	717.6
338.18 K, 1058.6 kPa, x2 = 0.8032	441.7
338.18 K, 1369.5 kPa, x2 = 0.44	660.6
338.18 K, 1481.2 kPa, x2 = 0.8036	671.6
338.18 K, 1560.1 kPa, x2 = 0.811	717.5
338.19 K, 1202.9 kPa, x2 = 0.739	520.7
343.18 K, 1231.3 kPa, x2 = 0.739	520.6
343.18 K, 1519.5 kPa, x2 = 0.8036	671.5
343.18 K, 1601.7 kPa, x2 = 0.811	717.5
343.19 K, 1081.5 kPa, x2 = 0.8032	441.7
343.19 K, 1413.6 kPa, x2 = 0.44	660.5
343.19 K, 1712.3 kPa, x2 = 0.627	835.4
348.15 K, 2241.8 kPa, x2 = 0.8392	1112.1
348.18 K, 1104.1 kPa, x2 = 0.8032	441.6
348.18 K, 1260.2 kPa, x2 = 0.739	520.6
348.18 K, 1453.8 kPa, x2 = 0.44	660.5
348.18 K, 1557.8 kPa, x2 = 0.8036	671.4
348.19 K, 1766.5 kPa, x2 = 0.627	835.3
348.2 K, 1643.2 kPa, x2 = 0.811	717.4
353.15 K, 2312 kPa, x2 = 0.8392	1112
353.18 K, 1127 kPa, x2 = 0.8032	441.6
353.18 K, 1287.6 kPa, x2 = 0.739	520.5
353.19 K, 1493.5 kPa, x2 = 0.44	660.4
353.19 K, 1594.5 kPa, x2 = 0.8036	671.4
353.19 K, 1683.4 kPa, x2 = 0.811	717.3
353.19 K, 1818 kPa, x2 = 0.627	835.2
358.17 K, 1314.9 kPa, x2 = 0.739	520.5
358.17 K, 1532 kPa, x2 = 0.44	660.3
358.18 K, 1148.5 kPa, x2 = 0.8032	441.6
358.18 K, 1631.3 kPa, x2 = 0.8036	671.3
358.19 K, 1722.8 kPa, x2 = 0.811	717.3
358.19 K, 1868.1 kPa, x2 = 0.627	835.2
358.23 K, 2381.4 kPa, x2 = 0.8392	1111.9
363.14 K, 2448.2 kPa, x2 = 0.8392	1111.8
363.19 K, 1171.1 kPa, x2 = 0.8032	441.5
363.19 K, 1569.8 kPa, x2 = 0.44	660.3
363.19 K, 1761.7 kPa, x2 = 0.811	717.2
363.19 K, 1917 kPa, x2 = 0.627	835.1
363.2 K, 2459.6 kPa, x2 = 0.4954	1290.6
363.21 K, 1667 kPa, x2 = 0.8036	671.3
363.31 K, 1342.8 kPa, x2 = 0.739	520.4
368.14 K, 1369.4 kPa, x2 = 0.739	520.4
368.14 K, 1800.8 kPa, x2 = 0.811	717.2
368.16 K, 1608 kPa, x2 = 0.44	660.2
368.16 K, 1966 kPa, x2 = 0.627	835
368.17 K, 1703 kPa, x2 = 0.8036	671.2
368.18 K, 2515 kPa, x2 = 0.8392	1111.7
368.18 K, 2548.7 kPa, x2 = 0.4954	1290.5
368.29 K, 1193.9 kPa, x2 = 0.8032	441.5
373.04 K, 1215 kPa, x2 = 0.8032	441.5
373.15 K, 1644.9 kPa, x2 = 0.44	660.2
373.16 K, 1839.4 kPa, x2 = 0.811	717.1
373.18 K, 1396.2 kPa, x2 = 0.739	520.4
373.18 K, 1738.7 kPa, x2 = 0.8036	671.2
373.18 K, 2580 kPa, x2 = 0.8392	1111.6
373.18 K, 2636.7 kPa, x2 = 0.4954	1290.4
373.19 K, 2014.5 kPa, x2 = 0.627	835
376.18 K, 2687.7 kPa, x2 = 0.4954	1290.3
378.17 K, 2644.8 kPa, x2 = 0.8392	1111.5
378.23 K, 1774.6 kPa, x2 = 0.8036	671.1
378.23 K, 2063.3 kPa, x2 = 0.627	834.9
378.25 K, 1422.5 kPa, x2 = 0.739	520.3
378.25 K, 1681.3 kPa, x2 = 0.44	660.1
378.25 K, 1876.9 kPa, x2 = 0.811	717
378.29 K, 1236.9 kPa, x2 = 0.8032	441.4
379.23 K, 2739.1 kPa, x2 = 0.4954	1290.3
382.19 K, 2788.4 kPa, x2 = 0.4954	1290.2
383.08 K, 1448.6 kPa, x2 = 0.739	520.3
383.17 K, 2708.3 kPa, x2 = 0.8392	1111.4
383.2 K, 2110.6 kPa, x2 = 0.627	834.8
383.21 K, 1718.2 kPa, x2 = 0.44	660.1
383.21 K, 1809.6 kPa, x2 = 0.8036	671.1
383.21 K, 1915.8 kPa, x2 = 0.811	717
383.22 K, 1259.2 kPa, x2 = 0.8032	441.4
385.22 K, 2838.9 kPa, x2 = 0.4954	1290.1
388.17 K, 2771 kPa, x2 = 0.8392	1111.3
388.18 K, 1279.7 kPa, x2 = 0.8032	441.3
388.18 K, 2156.7 kPa, x2 = 0.627	834.8
388.19 K, 1754.7 kPa, x2 = 0.44	660
388.19 K, 1844.5 kPa, x2 = 0.8036	671
388.19 K, 1953.2 kPa, x2 = 0.811	716.9
388.19 K, 2887.9 kPa, x2 = 0.4954	1290.1
388.32 K, 1475.8 kPa, x2 = 0.739	520.2
391.22 K, 2937.4 kPa, x2 = 0.4954	1290
393.18 K, 1501.3 kPa, x2 = 0.739	520.2
393.18 K, 1790.2 kPa, x2 = 0.44	660
393.18 K, 1879 kPa, x2 = 0.8036	670.9
393.18 K, 1990.4 kPa, x2 = 0.811	716.9
393.18 K, 2203.2 kPa, x2 = 0.627	834.7
393.21 K, 1301.7 kPa, x2 = 0.8032	441.3
393.22 K, 2834 kPa, x2 = 0.8392	1111.2
394.18 K, 2985.9 kPa, x2 = 0.4954	1289.9
397.15 K, 3033.4 kPa, x2 = 0.4954	1289.9
398.16 K, 1322.9 kPa, x2 = 0.8032	441.3
398.16 K, 1912.8 kPa, x2 = 0.8036	670.9
398.16 K, 2248.3 kPa, x2 = 0.627	834.6
398.17 K, 1527.2 kPa, x2 = 0.739	520.1
398.17 K, 1825.4 kPa, x2 = 0.44	659.9
398.17 K, 2027.2 kPa, x2 = 0.811	716.8
398.21 K, 2896 kPa, x2 = 0.8392	1111.2
400.15 K, 3082 kPa, x2 = 0.4954	1289.8
403.14 K, 1344.2 kPa, x2 = 0.8032	441.2
403.15 K, 1946.2 kPa, x2 = 0.8036	670.8
403.16 K, 1553.2 kPa, x2 = 0.739	520.1
403.16 K, 1860.1 kPa, x2 = 0.44	659.8
403.17 K, 2293.4 kPa, x2 = 0.627	834.5
403.19 K, 2956.6 kPa, x2 = 0.8392	1111.1
403.19 K, 3129.8 kPa, x2 = 0.4954	1289.8
403.2 K, 2063.9 kPa, x2 = 0.811	716.8
